This assay deals with CEM cells HIV-1 protection, formazan growth assay. The experiment in a line: NCI AIDS Antiviral Assay. The following applies: for IC50: measured here: growth of uninfected CEM cells. The method, boiled down: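 CEM (human) cells, HIV-1 infected vs uninfected, 5-point dosing, formazan growth read-out. Retest threshold 50% protection.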

A word on the EC50: it is the concentration needed to bring the measured effect to its halfway point. The term IC50 denotes the concentration at which inhibition is half-maximal. The low end stands for higher potency, the high end for lower potency.

Activity calls are given as the source filed them.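 Rule for the calls: active = compounds giving half or more protection of infected cells from virus-caused growth loss, again on retest; inactive = the rest.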

`CC(=O)OC1C(C)(O)[C@@H]2CC[C@H]3C4(C)CCCC(C)(C)[C@H]4CC[C@]13C2` (some centres not stated): the EC50 is over 50.1 µM and the 50% inhibitory concentration (IC50) is over 50.1 µM.

With `CC(C)=CCN1c2ccccc2[C@@]2(CC=C(C)C)CCN(C)[C@@H]12`, the EC50 was over 200 µM and the IC50 is 33.1 µM.

Consider `Cn1c2ccccc2c2oc(-c3nn[nH]n3)cc(=O)c21`, for which the EC50 is over 126 µM and the IC50 is over 126 µM.

Take `Cc1ccccc1NC(=O)C(=O)C(C1OC(=O)c2ccccc21)[N+](=O)[O-]` (configuration not stated): the EC50 is over 708 µM and the IC50 is 339 µM.

As for `CCN(CC)C1CS(=O)(=O)OC(c2ccccc2)=C1C` (configuration not stated), the EC50 was over 316 µM and the IC50 came to 22.4 µM.

Take `CSSC(SC)SC`: the EC50 is over 200 µM and the IC50 was 33.1 µM.

Turning to `Nc1nnc(N)c2[nH]cnc12`, the EC50 was over 200 µM and the IC50 was over 200 µM.

As for `CC(C)CC(=O)N1CCN(C(=O)CC(C)C)c2ccccc21`, the EC50 is over 603 µM and the IC50 is 589 µM.

On to `COc1ccc2c(=O)c(C)c(-c3ccccc3)oc2c1CN(C)C`, for which the result was inactive.

As for `CC(=O)Nc1ccc(S(=O)(=O)Nc2cnc3ccccc3n2)cc1`, the EC50 was over 525 µM and the IC50 was over 525 µM.

On to `Cc1cn(Cc2ccccc2CCO)c(=O)[nH]c1=O`, for which the EC50 was 191 µM and the IC50 was 479 µM.

For `CC(=O)C(=Cc1cccc(F)c1)C(C)=O`, the EC50 was over 126 µM and the IC50 came out at 64.6 µM.

For the molecule `CN(C)C(=O)N1CC[N+](C)([O-])CC1`, the EC50 is over 200 µM and the half-inhibitory concentration (IC50) is over 200 µM.

Regarding `CSCCC(C(=O)O)N(CC1(O)OCC(O)C(O)C1O)N=O` (configuration not stated), the result was inactive.

Take `CCOP(=O)(OCC)C(C(=O)OC)C(=O)C(=O)Nc1c(C)cc(Br)cc1C` (configuration not stated): the EC50 was over 537 µM and the IC50 is over 537 µM.

For the molecule `CCCCCCCCCCCCCCCC(=O)NCC(COP(=O)([O-])OCC[N+](C)(C)C)OCC` (configuration not stated), the result was inactive.

`CCC/C(Cl)=N\OC(=O)Nc1ccc(OC(F)(F)F)cc1`: the EC50 is over 20 µM and the IC50 is 5.37 µM.

For the molecule `COc1ccc(/C=C2/SC(c3ccc(Cl)cc3)N(NC(=O)CCCCCCCCC(=O)NN3C(=O)/C(=C\c4ccc(OC)c(OC)c4)SC3c3ccc(Cl)cc3)C2=O)cc1OC` (configuration not stated), the EC50 is 67.6 µM and the 50% inhibitory concentration (IC50) turned out to be 182 µM.

With `C=C1C(=O)OC2/C=C(\C)C3OC3/C=C(/C(=O)OC)C(OC(C)=O)C(OC(=O)C(C)(O)C(C)OC(C)=O)C12` (configuration not stated), the EC50 is over 129 µM and the IC50 turned out to be 0.832 µM.

With `CC(=O)Nc1ccc(/C=C2/NC(=S)N(/C=C3\C(=O)Oc4ccccc4C3=O)C2=O)cc1`, the EC50 is over 200 µM and the IC50 was 155 µM.

With `COc1ccc(-c2c3c([nH]c(=S)c2C#N)CC(C)(C)CC3=O)cc1`, the outcome was inactive.

Take `Clc1cccc(N=C/C=C/Nc2cccc(Cl)c2)c1`: the EC50 is over 200 µM and the IC50 was determined as 30.9 µM.

As for `CC(NC(=O)C(Cc1ccc(OC(=O)c2ccccc2)cc1)NC(=O)OC(C)(C)C)C(=O)NCC(=O)NC(Cc1ccccc1)NC(=O)OCc1ccccc1` (configuration not stated), the EC50 is over 200 µM and the IC50 came out at 110 µM.

On to `C=CCN1C(=O)CS/C1=N/NC(=O)C(O)(c1ccccc1)c1ccccc1`, for which the EC50 was over 200 µM and the IC50 came out at 129 µM.

Consider `C/C(=N/NC(=S)N1CCCCCC1)c1cccc(/C(C)=N\NC(=S)N2CCCCCC2)n1`, for which the EC50 is over 200 µM and the IC50 was determined as 3.63 µM.

In the case of `N#CC(/C(CCC(=O)Nc1ccc(Cl)cc1)=N/NC(=O)c1cc2ccccc2cc1O)c1ccccc1` (configuration not stated), the EC50 is over 51.3 µM and the IC50 is 12.6 µM.

Regarding `CCCCC[C@@H]1CC=CC(NC(=O)OCc2ccccc2)C1/C=C/C(=O)OCCCC1OCCO1` (some centres not stated), the outcome was inactive.

For the molecule `C=C1C(C(=O)OC)[C@@]2(C)C(C(=O)OC)C(=O)C(C(=O)OC)[C@@]2(CCC)C1C(=O)OC` (some centres not stated), the EC50 is over 141 µM and the IC50 amounted to 72.4 µM.

On to `C=C1SC(=Nc2cccc(OC)c2)N(c2nc(Cl)nc(Cl)n2)C1(C)C`, for which the EC50 is over 112 µM and the IC50 was 20 µM.

Turning to `NC1CN(C(COCc2ccccc2)c2ccc(OCc3ccccc3)cc2)C1=O` (configuration not stated), the outcome was inactive.

As for `CCOC(=O)C1=C(O)c2ccc(OC)cc2C(=O)C1=O`, the EC50 was over 339 µM and the IC50 was 204 µM.

For `Oc1cccc2nc3cc(CN4CCOCC4)c(CN4CCOCC4)cc3nc12`, the EC50 was over 18.2 µM and the IC50 was over 18.2 µM.

As to `CCOC(=O)CP(=S)(S)c1ccccc1` (configuration not stated), the EC50 was over 5500 µM and the IC50 was over 5500 µM.

As for `CCC(C)C(=O)O[C@H]1[C@H](OC(C)=O)[C@H](OC(C)=O)[C@@]2(COC(C)=O)C(OC(C)=O)C(=O)[C@@H]3[C@@H](OC(C)=O)[C@]2(O[C@@]3(C)COC(=O)c2ccccc2)[C@@]1(C)O` (some centres not stated), the outcome was inactive.

In the case of `CN1CCCC(=O)C1CC[C@H]1C(=O)CCCN1C` (some centres not stated), the EC50 was over 269 µM and the IC50 is over 269 µM.

In the case of `COc1ccc2cc1Oc1ccc(cc1)CC1c3cc4c(cc3CCN1C)Oc1c(OC)cc3c(c1O4)C(C2)N(C)CC3` (configuration not stated), the outcome was inactive.

For `CSC1=Nc2ccccc2N=C(N2CCCC2)C1`, the EC50 is 4.47 µM and the IC50 is over 200 µM.

For the molecule `CCOc1nnnc2nc[nH]c12`, the EC50 was over 200 µM and the IC50 turned out to be 70.8 µM.

`S=C(c1c[nH]c2ccccc12)N1CCN(c2ccccc2)CC1`: the EC50 is over 200 µM and the IC50 was determined as 158 µM.

For the molecule `C1=C(N2CCOCC2)/C(=C2\SC(=Nc3ccccc3)C(=Nc3ccccc3)N2c2ccccc2)CC1`, the EC50 was over 200 µM and the IC50 came out at 138 µM.

As for `CCOC(=O)C(=C=Cc1cccs1)C(=O)c1ccccc1`, the EC50 was over 120 µM and the IC50 is 53.7 µM.

As to `O=S1(=O)C(c2ccccc2)=C(O)c2cc3ccccc3nc21`, the result was inactive.

Turning to `CCN(CC)C(=O)C1C[C@@H](O)CN1C(=O)c1ccc(OC)c(OC)c1` (some centres not stated), the EC50 was over 200 µM and the IC50 is over 200 µM.

Regarding `CCOC(=O)/N=c1/nc(N(C)C)ss1`, the result was inactive.

For `Nc1ncnc2c1ncn2CC1COC(CO)O1` (configuration not stated), the EC50 was over 1000 µM and the half-maximal inhibitory concentration (IC50) was over 1000 µM.

In the case of `Oc1ccc(-c2nc(-c3cccnc3)c(-c3ccc(Cl)cc3)[nH]2)cc1O`, the EC50 was over 200 µM and the IC50 came to 13.8 µM.

Consider `O=C1C/C(=C/c2ccc(/C=C3/CC(=O)N(c4cccc(Br)c4)C3=O)cc2)C(=O)N1c1cccc(Br)c1`, for which the EC50 is over 11.2 µM and the IC50 was over 11.2 µM.

With `Cc1c2n(c3ccccc13)CC1CON(C)C21` (configuration not stated), the EC50 is over 1100 µM and the concentration for half-maximal inhibition (IC50) was found to be 355 µM.

For `Oc1ccc(C2Oc3cc(O)c4cc3C2c2c3c(cc5c2[C@@H](c2cc(O)cc(O)c2)C(c2ccc(O)cc2)O5)O[C@@H](c2ccc(O)cc2)C3c2cc(O)cc3c2C4[C@H](c2ccc(O)cc2)O3)cc1` (some centres not stated), the EC50 is over 15.8 µM and the IC50 was over 15.8 µM.

Regarding `O=c1n(CCCN2CCN(c3cccc(Cl)c3)CC2)nc2n1-c1ccc3ccccc3c1SC2`, the EC50 is over 200 µM and the IC50 was over 200 µM.

On to `Cc1cc(S(=O)(=O)NC2=NC(c3ccccc3)c3ccccc3N2)c(S)cc1Cl` (configuration not stated), for which the EC50 was over 200 µM and the IC50 was over 200 µM.

Regarding `CC(=O)OCC1OC(n2c3c(c(-c4ccc(C)cc4)c(C#N)c2=S)C(=O)CC(C)(C)C3)C(OC(C)=O)C(OC(C)=O)C1OC(C)=O` (configuration not stated), the EC50 is over 200 µM and the IC50 worked out at 16.6 µM.

For `NC(=NCC(=O)O)c1ncn(C2OC(CO)C(O)C2O)n1` (configuration not stated), the result was inactive.

For the molecule `O=C(NNc1nc2ccc(Cl)cc2s1)c1cnc2n(c1=O)CCS2`, the EC50 is over 200 µM and the concentration for half-maximal inhibition (IC50) is 102 µM.

In the case of `O=C1NC(=O)C2(CC2)N1`, the EC50 is over 200 µM and the IC50 is over 200 µM.

On to `CC(C)(C)C1CCC2c3c([nH]c4ccccc34)C3C(=O)N(c4ccc(C#N)cc4)C(=O)C3C2C1` (configuration not stated), for which the EC50 is over 200 µM and the half-maximal inhibitory concentration (IC50) turned out to be 10 µM.

As to `CC(=O)OC1CCn2nnc(COC(=O)NC(C)C)c21` (configuration not stated), the result was inactive.

For `O=C1c2cc([N+](=O)[O-])ccc2-c2ccc3c4ccc5c6c(ccc(c7ccc1c2c73)c64)C(=O)c1cc([N+](=O)[O-])ccc1-5`, the EC50 was over 100 µM and the IC50 was over 100 µM.

On to `O=C(CC(O)(C(F)(F)F)C(F)(F)F)c1ccc(-c2ccccc2)cc1`, for which the EC50 was over 200 µM and the IC50 came to 33.9 µM.

Take `CC1=C(C#N)C2(C(=O)N(C)c3ccccc32)C(C#N)=C(C)N1`: the EC50 is over 324 µM and the IC50 stood at 27.5 µM.

For `COCCN(C(=O)c1ccccc1)C1CCC(=O)c2[nH]c3ccccc3c21` (configuration not stated), the EC50 was over 200 µM and the IC50 came to 3.63 µM.

Turning to `c1ccc2sc(SSSSc3nc4ccccc4s3)nc2c1`, the EC50 was over 200 µM and the half-inhibitory concentration (IC50) was found to be 174 µM.

For the molecule `CC(C)(C)OC(=O)N[C@@H](Cc1ccccc1)CN1CCCC1C(=O)O` (some centres not stated), the EC50 was over 3390 µM and the 50% inhibitory concentration (IC50) amounted to 2570 µM.

For `O=P1(Cc2ccccc2)C(c2ccccc2)=C(O)C2CCCC21` (configuration not stated), the EC50 was over 112 µM and the IC50 is over 112 µM.

For `N=C(N)c1ccc(OCCCCCOc2ccc(C(=N)N)cc2)cc1`, the EC50 is over 20.4 µM and the IC50 was 1.29 µM.

As to `CC(C)[C@@H]1CC[C@@H](C)C[C@H]1OC(=O)c1c2n(c3ccccc13)C[C@H]1OC(C)(C)O[C@@H]21`, the EC50 was over 100 µM and the IC50 came to 77.6 µM.

On to `CCOC(=O)NC(Nc1ccc(OC(F)(F)F)cc1)(C(F)(F)F)C(F)(F)F`, for which the EC50 was over 200 µM and the IC50 is 105 µM.

As to `Cc1cn(C2CC(O)C(CN(O)C(N)=O)O2)c(=O)[nH]c1=O` (configuration not stated), the EC50 is over 100 µM and the IC50 is over 100 µM.

With `O=C(O)C1=C(O)C(C(=O)O)C23CCCCCCCCCCC12C(C(=O)O)C(O)=C3C(=O)O` (configuration not stated), the outcome was inactive.

On to `CC(=O)[O-].COc1cccc(/C=N\[N-]C(=O)c2ccncc2)c1.[Co+2].[OH3+].[OH3+].c1ccncc1`, for which the EC50 is over 100 µM and the IC50 is 57.5 µM.
